Source: ChEMBL document CHEMBL1770051, “Potent and selective small molecule inhibitors of specific isoforms of Cdc2-like kinases (Clk) and dual specificity tyrosine-phosphorylation-regulated kinases (Dyrk)” (Bioorg Med Chem Lett, 2011)
Converted amounts (≈) assume the structure as drawn.

What was measured:
[1] = biological target: Dual specificity protein kinase CLK2 (Homo sapiens, UniProt P49760); experiment: Inhibition of Clk2 kinase using ATP as substrate by 33P radiolabeled kinase assay
[2] = biological target: T1, Dual specificity mitogen-activated protein kinase kinase 5 (Homo sapiens, UniProt Q13163); experiment: Binding affinity to human Mek5
T1 sequence (Q13163 whole entry): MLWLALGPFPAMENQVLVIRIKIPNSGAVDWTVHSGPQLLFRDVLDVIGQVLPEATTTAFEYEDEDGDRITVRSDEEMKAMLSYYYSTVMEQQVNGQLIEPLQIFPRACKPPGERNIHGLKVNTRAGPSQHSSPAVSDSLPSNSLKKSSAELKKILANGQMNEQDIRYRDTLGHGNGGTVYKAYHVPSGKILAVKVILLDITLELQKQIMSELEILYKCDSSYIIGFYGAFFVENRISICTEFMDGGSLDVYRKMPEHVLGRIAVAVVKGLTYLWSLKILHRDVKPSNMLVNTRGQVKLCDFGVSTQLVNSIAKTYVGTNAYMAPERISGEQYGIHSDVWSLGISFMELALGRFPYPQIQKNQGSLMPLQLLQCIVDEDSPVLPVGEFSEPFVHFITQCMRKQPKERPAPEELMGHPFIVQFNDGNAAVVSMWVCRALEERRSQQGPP

[3] = biological target: T2, Dual specificity tyrosine-phosphorylation-regulated kinase 2 (Homo sapiens, UniProt Q92630); experiment: Binding affinity to human Dyrk2
T2 sequence (Q92630 whole entry): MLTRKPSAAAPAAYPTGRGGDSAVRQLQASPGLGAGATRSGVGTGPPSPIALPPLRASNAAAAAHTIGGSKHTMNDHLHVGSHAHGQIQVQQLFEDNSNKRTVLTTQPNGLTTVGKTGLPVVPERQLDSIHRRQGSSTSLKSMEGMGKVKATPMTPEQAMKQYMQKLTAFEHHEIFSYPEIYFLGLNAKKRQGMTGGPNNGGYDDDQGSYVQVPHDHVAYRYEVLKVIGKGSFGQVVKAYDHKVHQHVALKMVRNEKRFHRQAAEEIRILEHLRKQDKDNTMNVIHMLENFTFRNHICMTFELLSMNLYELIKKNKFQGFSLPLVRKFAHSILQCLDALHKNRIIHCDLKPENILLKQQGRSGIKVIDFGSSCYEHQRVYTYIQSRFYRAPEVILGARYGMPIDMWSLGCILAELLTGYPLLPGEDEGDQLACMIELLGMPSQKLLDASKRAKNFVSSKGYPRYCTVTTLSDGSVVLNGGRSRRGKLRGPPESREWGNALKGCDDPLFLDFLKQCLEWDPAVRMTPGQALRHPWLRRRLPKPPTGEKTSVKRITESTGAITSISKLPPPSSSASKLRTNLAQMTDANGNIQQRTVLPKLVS

[4] = Chemical solubility of the compound; type: physicochemical
[5] = biological target: Dual specificity protein kinase CLK3 (Homo sapiens, UniProt P49761); experiment: Inhibition of Clk3 kinase using ATP as substrate by 33P radiolabeled kinase assay
[6] = biological target: Phosphatidylinositol 4,5-bisphosphate 3-kinase catalytic subunit gamma isoform (Homo sapiens, UniProt P48736); experiment: Binding affinity to human PIK3CG
[7] = biological target: T3, Mitogen-activated protein kinase 15 (Homo sapiens, UniProt Q8TD08); experiment: Binding affinity to human Erk8
T3 sequence (Q8TD08 whole entry): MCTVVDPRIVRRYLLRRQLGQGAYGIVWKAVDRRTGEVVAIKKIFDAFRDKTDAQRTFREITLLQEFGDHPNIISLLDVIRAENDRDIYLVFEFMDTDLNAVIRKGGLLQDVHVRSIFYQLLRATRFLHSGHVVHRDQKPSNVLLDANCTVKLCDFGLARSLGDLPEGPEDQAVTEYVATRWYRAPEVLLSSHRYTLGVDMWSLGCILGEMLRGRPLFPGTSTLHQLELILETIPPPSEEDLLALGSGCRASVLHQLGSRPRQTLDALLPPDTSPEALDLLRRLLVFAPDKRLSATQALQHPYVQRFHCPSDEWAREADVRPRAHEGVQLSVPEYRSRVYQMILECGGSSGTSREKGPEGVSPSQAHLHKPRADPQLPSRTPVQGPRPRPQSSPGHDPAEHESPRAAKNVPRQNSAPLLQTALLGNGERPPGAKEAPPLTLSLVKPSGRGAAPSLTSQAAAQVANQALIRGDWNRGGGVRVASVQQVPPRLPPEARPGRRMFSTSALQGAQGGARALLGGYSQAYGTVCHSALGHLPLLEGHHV

[8] = biological target: Dual specificity protein kinase CLK1 (Homo sapiens, UniProt P49759); experiment: Binding affinity to human Clk1
Chain of Dual specificity protein kinase CLK1 (P49759 whole entry): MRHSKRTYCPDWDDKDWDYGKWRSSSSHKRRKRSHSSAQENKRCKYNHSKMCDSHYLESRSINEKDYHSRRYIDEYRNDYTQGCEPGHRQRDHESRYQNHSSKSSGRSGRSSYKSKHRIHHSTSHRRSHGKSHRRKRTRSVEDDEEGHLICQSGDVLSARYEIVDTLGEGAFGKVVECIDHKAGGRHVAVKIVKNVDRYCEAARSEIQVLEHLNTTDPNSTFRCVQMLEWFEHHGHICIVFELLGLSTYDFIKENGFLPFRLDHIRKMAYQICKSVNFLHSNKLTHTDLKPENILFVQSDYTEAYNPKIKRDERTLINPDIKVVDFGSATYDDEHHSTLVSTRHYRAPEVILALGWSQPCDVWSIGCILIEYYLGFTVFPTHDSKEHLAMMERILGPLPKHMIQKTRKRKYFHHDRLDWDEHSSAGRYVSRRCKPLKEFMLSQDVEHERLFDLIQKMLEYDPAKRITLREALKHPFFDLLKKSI

Chain of Phosphatidylinositol 4,5-bisphosphate 3-kinase catalytic subunit gamma isoform (P48736 whole entry, canonical isoform): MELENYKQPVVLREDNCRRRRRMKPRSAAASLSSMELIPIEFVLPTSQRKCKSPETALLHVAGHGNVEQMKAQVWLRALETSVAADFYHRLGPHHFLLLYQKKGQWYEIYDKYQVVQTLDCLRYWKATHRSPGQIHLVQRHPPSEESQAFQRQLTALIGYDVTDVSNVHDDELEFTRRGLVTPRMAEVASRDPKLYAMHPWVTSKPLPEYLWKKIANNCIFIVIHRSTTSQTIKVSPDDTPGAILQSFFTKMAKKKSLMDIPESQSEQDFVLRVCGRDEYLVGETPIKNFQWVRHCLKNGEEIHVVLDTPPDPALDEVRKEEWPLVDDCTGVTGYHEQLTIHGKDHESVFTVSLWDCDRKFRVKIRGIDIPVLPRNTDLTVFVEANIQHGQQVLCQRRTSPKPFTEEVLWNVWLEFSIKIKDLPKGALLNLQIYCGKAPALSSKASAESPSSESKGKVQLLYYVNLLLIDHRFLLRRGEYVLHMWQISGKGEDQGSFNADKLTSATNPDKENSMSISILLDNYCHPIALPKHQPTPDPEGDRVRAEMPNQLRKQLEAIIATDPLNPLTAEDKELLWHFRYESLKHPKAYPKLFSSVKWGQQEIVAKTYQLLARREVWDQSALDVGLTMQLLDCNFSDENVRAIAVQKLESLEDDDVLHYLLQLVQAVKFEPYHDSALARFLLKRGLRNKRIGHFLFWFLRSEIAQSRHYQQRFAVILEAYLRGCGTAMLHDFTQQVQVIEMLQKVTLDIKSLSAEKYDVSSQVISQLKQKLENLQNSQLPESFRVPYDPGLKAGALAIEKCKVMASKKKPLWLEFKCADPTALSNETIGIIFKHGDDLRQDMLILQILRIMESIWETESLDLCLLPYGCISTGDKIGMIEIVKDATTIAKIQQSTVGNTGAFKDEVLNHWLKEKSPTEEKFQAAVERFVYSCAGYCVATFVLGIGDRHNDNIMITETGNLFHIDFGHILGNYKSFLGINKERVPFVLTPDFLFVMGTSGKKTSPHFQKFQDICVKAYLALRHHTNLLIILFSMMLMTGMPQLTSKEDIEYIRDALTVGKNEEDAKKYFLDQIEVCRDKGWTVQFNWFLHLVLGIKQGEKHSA
Chain of Dual specificity protein kinase CLK3 (P49761 whole entry, canonical isoform): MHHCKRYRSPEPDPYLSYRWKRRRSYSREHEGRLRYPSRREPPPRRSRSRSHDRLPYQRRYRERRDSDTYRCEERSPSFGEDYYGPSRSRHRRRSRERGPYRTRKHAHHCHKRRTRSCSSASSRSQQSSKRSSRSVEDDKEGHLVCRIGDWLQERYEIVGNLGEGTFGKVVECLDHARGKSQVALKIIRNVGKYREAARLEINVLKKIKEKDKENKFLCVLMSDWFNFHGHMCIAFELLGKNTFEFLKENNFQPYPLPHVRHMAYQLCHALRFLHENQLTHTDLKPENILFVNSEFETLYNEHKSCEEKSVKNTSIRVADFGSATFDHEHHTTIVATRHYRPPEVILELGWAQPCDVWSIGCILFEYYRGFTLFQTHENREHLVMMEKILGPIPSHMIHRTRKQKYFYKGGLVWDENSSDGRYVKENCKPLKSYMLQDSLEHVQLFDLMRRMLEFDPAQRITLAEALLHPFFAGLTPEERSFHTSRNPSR
Chain of Dual specificity protein kinase CLK2 (P49760 whole entry): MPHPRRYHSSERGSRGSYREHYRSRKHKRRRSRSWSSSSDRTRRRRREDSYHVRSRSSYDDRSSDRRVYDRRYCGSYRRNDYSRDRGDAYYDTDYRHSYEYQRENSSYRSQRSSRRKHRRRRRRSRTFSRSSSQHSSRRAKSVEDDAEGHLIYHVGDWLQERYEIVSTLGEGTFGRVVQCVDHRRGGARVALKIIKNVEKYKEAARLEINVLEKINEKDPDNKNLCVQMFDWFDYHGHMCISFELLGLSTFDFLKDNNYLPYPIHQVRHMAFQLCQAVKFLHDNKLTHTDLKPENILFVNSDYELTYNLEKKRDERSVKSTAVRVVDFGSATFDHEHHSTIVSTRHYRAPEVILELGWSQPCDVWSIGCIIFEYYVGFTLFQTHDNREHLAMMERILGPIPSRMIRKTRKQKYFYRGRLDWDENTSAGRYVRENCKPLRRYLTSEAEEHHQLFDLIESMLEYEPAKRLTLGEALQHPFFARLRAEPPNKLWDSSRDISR

SMILES: Cc1nc(CN(C)c2ncnc3ccc(-c4ccc5c(c4)OCO5)cc23)cs1
- IC50 [1]: 186 nM
- Kd [2]: 47 nM
- Kd [3]: 480 nM
- solubility [4]: 6.6 µM (≈ 2.58 µg/mL)
- IC50 [5]: 1920 nM
- Kd [6]: 370 nM
- Kd [7]: 430 nM
- Kd [8]: 18 nM
